From patent US20140323420A1, “REDUCING TRANSMISSION OF SEXUALLY TRANSMITTED INFECTIONS” (University of Rochester, priority 2011, published 2014)
“Also recorded” adds a separate entry of the source. Where two headings read alike, the source gives them in different places.

Columns and labels:
[1] = tested on: cervical epithelial cell lines SiHa, A2En, 3EC1; type: cell-based, human
Source text: For a compound to be a legitimate HIV-1 microbicide candidate, it must not have toxic or inflammatory effects on the cervical […]. Loss of this protective layer leads to an increased ability for HIV-1 to cross the mucosal barrier, and inflammatory effects drive recruitment of HIV-1 target cells, further decreasing the natural barriers against successful transmission of HIV. […] To do this, the following cell lines were used: 1) SiHa cells, a cervical carcinoma cell line; 2) A2En cells, a primary cell-derived line from the endocervical […]; and 3) 3EC1 cells, a primary cell-derived line from the ectocervical […]. […] Viability was assessed at 24 h by using the resazurin cytotoxicity assay. Resazurin cytotoxicity data were confirmed by trypan blue counts of viable cells.

HIV-1IIIB [2] = test: Semen-mediated enhancement of HIV-1 IIIB infection, CEM cells; type: cell-based; details: HIV-1 IIIB preincubated with 50% semen, diluted 15 fold onto CEM cells
Experimental: (§1) After 10 minutes, the stocks were diluted 15 fold and incubated with CEM 5.25 cells.

[3] = tested on: cervical epithelial cell lines SiHa, A2En, 3EC1; type: cell-based, human; remark: listed apart in the source
Experimental: Cytokine and chemokine production was assessed at 12 h by ELISA (R&D systems). Cells were also treated with 0.1% nonoxynol-9 as a positive control for cytotoxicity and with 0.1 μg/ml FSL1, a synthetic diacylated lipoprotein derived from Mycoplasma salivarium (InvivoGen, San Diego, Calif.), as a positive control for chemokine production.
Nonoxynol-9 (non-9), a spermicide, was used as a positive control. […] Cell culture supernatants were then assessed for the presence of the inflammatory cytokines and chemokines Mip-3α (FIG. 5B), IL-8 (FIG. 16C), IL-1β, and TNF-α.

SEVI fibrils [4] = biological target: T1, SEVI fibrils (Homo sapiens, UniProt P15309); test: Fluorescence polarization: displacement of FITC-heparin from SEVI fibrils; type: binding; details: SEVI + 16 μg/ml FITC-heparin, 1 h room temperature
T1 construct: PAP248-286 peptide was synthesized by New England Peptide; purchased New England Peptide (Gardner, Mass.); host or cells: chemical synthesis
T1 sequence (P15309 248-286 limits assumed): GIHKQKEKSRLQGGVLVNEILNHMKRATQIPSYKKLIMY
Experimental: Samples were incubated 1 h at room temperature and read on a PerkinElmer Life Sciences Envision 2012 multilabel reader (PerkinElmer, Waltham, Mass.) at an excitation λ=480 nm and emission λ=535 nm. The horizontal and vertical polarized fluorescence intensities were recorded, and the calculated polarization was determined in millipolarization units.
Samples were incubated for 1 hour at room temperature and polarized fluorescence was measured.

HIV-1 IIIB = test: Virus binding assay (p24), HIV-1 IIIB virions; type: cell-based; details: Jurkat cells; for Inhibition of SEVI-enhanced binding of HIV-1 virions to the cell surface (p24 ELISA): with SEVI, 90 min
Experimental: as §1

HIV-1IIIB [5] = test: SEVI-mediated enhancement of HIV-1 IIIB infection, CEM-M7 (CEM 5.25) cells, luciferase; type: cell-based; details: for Inhibition of SEVI-mediated enhancement of HIV-1 infection (luciferase): CEM cells, with SEVI fibrils, increasing concentrations
Experimental: After 2 h, the medium […] were replaced.

HIV-IIIB = test: Screening hits: SEVI-mediated enhancement of HIV-IIIB infection, CEM-M7 cells; type: cell-based, HIV-1; details: 50 μM, 15 μg/mL SEVI, 48 hours
Experimental: Each of the selected compound shown below was incubated at 50 μM with 15 μg/mL of SEVI for 10 minutes. HIV-IIIB was then added and incubated for an additional 10 minutes prior to being added to CEM-M7 cells. After two hours the inoculum was removed and the cells washed with PBS. The cells were incubated for an additional 48 hours and then HIV infection was assessed by luciferase activity. Luciferase activity is graphed for each of the selected compounds in FIG. 29.
A high throughput assay was established to identify SEVI-binding compounds.

SEVI fibrils [6] = biological target: T1, SEVI fibrils; test: Example 4: centrifugation fluorescence binding assay of 1-5 to SEVI fibrils; details: Table 3, 5% DMSO/PBS
Source text: Each experiment was repeated at least 3 times. Error bars represent standard deviations from the mean.
When the Kd values of compounds 1-5 to SEVI fibrils was examined, a similar trend for improved binding of the oligomeric BTA compounds was observed (Table 3). The greatest improvement in binding as a function of increasing valence number in the oligomer was observed when comparing the monomer to dimer and the tetramer to pentamer.

Aβ(1-42) fibrils = biological target: T2, Aβ(1-42) fibrils (Homo sapiens, UniProt P05067); test: Example 4: centrifugation fluorescence binding assay of 1-5 to Aβ(1-42) fibrils
T2 construct: Aβ(1-42) peptide was purchased from GL Biochem (Shanghai, China) Ltd; purchased GL Biochem (Shanghai, China) Ltd; host or cells: synthetic peptide; fibrils grown in PBS at 37 °C for 24 h
T2 sequence (P05067 672-713 limits assumed): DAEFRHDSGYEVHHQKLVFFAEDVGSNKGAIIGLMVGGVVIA
Experimental: The binding of BTA monomer oligomer to amyloid fibrils was measured according to the centrifugation assay described by Levine for BTA-1 to Aβ fibrils (Levine et al., Amyloid 12:5-14 (2005)). […] These incubations were performed in duplicate runs and allowed to equilibrate for 12 hours at room temperature. After equilibration, each solution was centrifuged at 16,000 g for 20 minutes at 4° C. The supernatants were separated from the pelleted fibrils, and 220 μL of fresh 5% DMSO/PBS was added to re-suspend the pellets. 100 μl aliquots of each re-suspended pellet was pipetted into a cuvette (ultramicrocuvette, 10-mm light path, Hellma®, Müllheim, Germany), and the fluorescence of the bound molecule was determined at 355 nm excitation and 420 nm emission using a spectrofluorometer (Photon Technology International, Inc., Birmingham, N.J.). Each experiment was repeated at least 3 times. Error bars represent standard deviations from the mean. […] The data were processed using Origin 7.0 (MicroCal Software, Inc., Northampton, Mass.).

SEVI fibrils [7] = biological target: T1, SEVI fibrils; test: Example 3: fluorescence assay, Kd of monomer and oligomers 1-5 to SEVI fibrils; type: binding; details: Example 3, Table 2, estimated
Experimental: To test whether binding affinity/avidity is reduced in oligomeric forms, the binding of monomeric and oligomeric forms was assayed to determine the affinity/avidity constants (Kd) for the binding of monomer and oligomers 1-5 to amyloid fibrils formed from SEVI peptides.

SEVI fibrils [8] = biological target: T1, SEVI fibrils; test: Flow cytometry: binding of SEVI-biotin fibrils to the Jurkat cell surface; type: cell-based; details: 1 h; for MFI (mean fluorescent intensity): Jurkat cells + SEVI-biotin
Experimental: Cells were incubated for 1 h at 37° C., washed, and stained for 1 h with a covalent conjugate of streptavidin and fluorescein isothiocyanate (SA-FITC). Cells were washed and run on an Accuri C6 Flow Cytometer (Accuri Cytometers, Ann Arbor, Mich.). Data were analyzed using FlowJo (TreeStar Inc, Ashland, Oreg.).
After that time, fibrillar structures were examined by ThT fluorescence. ThT changes in fluorescence intensity when intercalated into the β-sheet structure common to amyloid fibrils; therefore, ThT fluorescence serves as a surrogate measure for fibrillar structure of SEVI and for the stability of SEVI fibrils. […] Binding of the fibrils to the cell surface was detected using SA-FITC. […] Surface-bound fibrils were detected with SA-FITC and measured by flow cytometry. Results are shown as percentage of cells with bound fibrils (SA-FITC+) as well as mean fluorescent intensity (MFI).

[9] = biological target: T3, aggregated Alzheimer disease-related Aβ(1-42) peptides (Homo sapiens, UniProt P05067); test: Fluorescence binding assay of BTA-EG6 to aggregated Aβ(1-42) peptides; details: same fluorescence binding assay
T3 construct: aggregated Alzheimer disease-related Aβ(1-42) peptides
T3 sequence (P05067 672-713 limits assumed): as above
Source text: Error bars represent standard deviations from the mean.

SiHa cells = test: Semen-mediated chemokine release from SiHa cells (ELISA); type: cell-based; details: pooled human semen, 33 μg/ml BTA-EG6, 6 h
Experimental: (§2) Supernatant was collected at 6 and 24 h, and the production of the chemokines IL-8 and Mip-3α was measured by ELISA (R&D Systems). […] After 6 h, supernatants were collected, and the production of the chemokines IL-8 and Mip-3α was measured by ELISA (R&D systems, Minneapolis, Minn.).
After 6 h, supernatants were collected and analyzed for production of IL-8 or MIP-3α.

HIV-1IIIB [10] = details: previously reported value for BTA-EG6; cited from earlier work
SEVI fibrils [11] = biological target: T1, SEVI fibrils; test: ThT fluorescence stability of preformed SEVI fibrils; details: 3 h incubation
Source text: After that time, fibrillar structures were examined by ThT fluorescence. ThT changes in fluorescence intensity when intercalated into the β-sheet structure common to amyloid fibrils; therefore, ThT fluorescence serves as a surrogate measure for fibrillar structure of SEVI and for the stability of SEVI fibrils.

A2En cells = test: HIV-1 BaL + SEVI chemokine release from A2En cells (ELISA); type: cell-based, human; details: HIV-1BAL virions + SEVI
Experimental: as §2

HIV-1BaL = test: SEVI-mediated enhancement of HIV-1 BaL infection of PBMCs, p24; type: cell-based
Experimental: Cells were washed at 3 h, and infection was analyzed at day 4 using the HIV-1 p24 antigen capture assay (Advanced Bioscience Laboratory).

HIV-1ADA [12] = test: Semen-mediated enhancement of HIV-1 ADA infection, CEM-M7 cells; type: cell-based
Experimental: After 15 min, the semen and virus mixture was diluted 1:15 into 5×10^4 CEM-M7 cells/well in a 96-well plate. Cells were washed after 1 h, and infection was assayed at 48 h as above.
As human semen has been reported to be toxic to cultured cells, a protocol that minimized this toxicity was used. Pooled human semen was added to HIV-1IIIB virus in a 1:1 dilution. After 15 min, this solution was added to cells at a 1:15 dilution for a final concentration of 3.3%.

HIV-1ADA [13] = test: SEVI-mediated enhancement of HIV-1 ADA infection, CEM-M7 cells, luciferase; type: cell-based
Experimental: Treated virions were then added to 5×10^4 CEM-M7 cells/well in 96-well flat-bottomed tissue culture plates. After 2 h, the medium axis were replaced. Infection was assayed after 48 h by quantifying luciferase expression using the Promega Dual-Luciferase assay and a Beckman Coulter DTX880 plate reader.

HIV-1ADA [14] = test: Virus binding assay (p24), HIV-1 ADA virions; type: cell-based; details: A2En endocervical cells, with SEVI
Experimental: After 90 min, cells were washed to remove any unbound virus, and bound virions were detected using an HIV-1 p24 antigen capture assay (Advanced Bioscience Laboratory).
Surface-bound virions were then measured by p24 ELISA after washing off unbound virus. […] Additionally, this experiment was performed using A2En cells, a primary cell-derived endocervical cell line.

[15] = heparin (100 μg/ml) positive control
[16] = Table 3, 5% DMSO/PBS, read-out: Kd (nM) to Aβ(1-42) fibrils

## Cc1ccc2nc(-c3ccc(NCCOCCOCCOCCO)cc3)sc2c1 [BTA-EG4]
[1]
  Cell viability (Alamar Blue): did not affect the cell viability
HIV-1IIIB [2]
  Inhibition of semen-mediated enhancement of HIV infection (luciferase): capable of inhibiting semen mediated enhancement of HIV infection
[3]
  Cytokine production (IL-1b, MIP-3a, TNF-a) by ELISA: do not induce cytokine production
SEVI fibrils [4]
  Binding to SEVI fibrils, displacement of FITC-heparin (decrease of polarization): capable of binding SEVI
HIV-1 IIIB
  Inhibition of SEVI-enhanced binding of HIV-1 virions to the cell surface (p24 ELISA): decrease in HIV-1 binding to the cells
HIV-1IIIB [5]
  Inhibition of SEVI-mediated enhancement of HIV-1 infection (luciferase): decreasing levels of luciferase activity

## COc1ccc(Cl)cc1-c1ccc(-c2c(C#N)c(N)n3c(nc4ccccc43)c2C#N)o1 [Compound 8E2]
HIV-IIIB
  Inhibition of SEVI-mediated enhancement of HIV infection (luciferase): inhibited SEVI-mediated enhancement of HIV infection

## Cc1ccc2nc(-c3ccc(NCCC(=O)NCCOCCOCCOCCOCCC(=O)NCCNC(=O)CCOCCOCCOCCOCCNC(=O)CCNc4ccc(-c5nc6ccc(C)cc6s5)cc4)cc3)sc2c1 [Compound 2, BTA Dimer]
SEVI fibrils [6]
  Kd: 69 ± 1 nM
Aβ(1-42) fibrils
  Fold lower Kd than monomer 1, Aβ(1-42) fibrils: 8 fold
  Kd: 29 ± 4 nM
SEVI fibrils [7]
  Kd: 75 ± 10 nM

## COc1ccc2cc3[n+](cc2c1OC)CCc1cc2c(cc1-3)OCO2 [Compound 11A5]
HIV-IIIB
  Inhibition of SEVI-mediated enhancement of HIV infection (luciferase): inhibited SEVI-mediated enhancement of HIV infection

## heparin [reference compound]
SEVI fibrils [4]
  Binding to SEVI fibrils, displacement of FITC-heparin (decrease of polarization): the polarization decreased
SEVI fibrils [8]; [15]
  SA-FITC+ (%), percentage of cells with bound fibrils: 31.7%
  MFI (mean fluorescent intensity): 376

## Cc1ccc2nc(-c3ccc(NCCOCCOCCOCCOCCOCCO)cc3)sc2c1 [BTA-EG6]
[9]
  Kd: 111 ± 32 nM
SiHa cells
  Effect on semen-stimulated IL-8 and MIP-3α production: no inhibitory effect on semen-stimulated chemokine production
[1]
  Cell viability (Alamar Blue): did not affect the cell viability
  Cell viability (resazurin cytotoxicity assay): did not have any effects on cell viability
HIV-1IIIB [10]
  Concentration required to completely neutralize the effects of SEVI on HIV-1 infection: 44 µM
SEVI fibrils [11]
  Effect on stability of preformed SEVI fibrils (ThT fluorescence): no effect on fibrillar stability
HIV-1IIIB [2]
  Inhibition of semen-mediated enhancement of HIV infection (luciferase): capable of inhibiting semen mediated enhancement of HIV infection; also recorded: efficiently inhibited the semen mediated enhancement of HIV-1 infection
A2En cells
  Inhibition of SEVI-increased IL-8 release: able to inhibit this release
[3]
  Cytokine production (IL-1b, MIP-3a, TNF-a) by ELISA: do not induce cytokine production
HIV-1BaL; HIV-1BAL, 15 μg/ml SEVI
  Inhibition of SEVI-mediated enhancement of HIV-1 infection (p24): able to inhibit SEVI-mediated enhancement of HIV-1 infection in PBMCs
HIV-1BaL; HIV-1BaL, absence of SEVI
  Effect on infectivity of HIV alone: no effect on the infectivity of HIV-1BaL
HIV-1ADA [12]
  Inhibition of semen-mediated enhancement of HIV infection (luciferase): this effect extended to infection with an R5 virus
HIV-1ADA [13]; CEM-M7, 15 μg/ml SEVI
  Inhibition of SEVI-mediated enhancement of HIV-1 infection (luciferase): significant dose-dependent inhibition
HIV-1ADA [13]; CEM-M7, absence of SEVI
  Effect on infectivity of HIV alone: No effect on the infectivity of HIV-1ADA was observed
SEVI fibrils [4]
  Binding to SEVI fibrils, displacement of FITC-heparin (decrease of polarization): capable of binding SEVI; also recorded: able to displace fluorescent heparin from the SEVI fibrils in a dose-dependent fashion
HIV-1ADA [14]
  Inhibition of SEVI-enhanced binding of HIV-1 virions to the cell surface (p24 ELISA): this effect was inhibited
HIV-1 IIIB; absence of SEVI
  Effect on binding of HIV virions to the cell surface: no effect on the binding of HIV virions to the cell surface
HIV-1 IIIB
  Inhibition of SEVI-enhanced binding of HIV-1 virions to the cell surface (p24 ELISA): decrease in HIV-1 binding to the cells
HIV-1 IIIB; listed as BTAEG6
  Inhibition of SEVI-enhanced binding of HIV-1 virions to the cell surface (p24 ELISA): efficiently abrogated
SEVI fibrils [8]; BTA-EG6 high (27 μg/ml)
  SA-FITC+ (%), percentage of cells with bound fibrils: 21.2%
  MFI (mean fluorescent intensity): 38.7
SEVI fibrils [8]; BTA-EG6 low (5.5 μg/ml)
  SA-FITC+ (%), percentage of cells with bound fibrils: 36.6%
  MFI (mean fluorescent intensity): 95.3
HIV-1IIIB [5]
  Inhibition of SEVI-mediated enhancement of HIV-1 infection (luciferase): decreasing levels of luciferase activity; also recorded: reducing infectivity nearly back to baseline levels
HIV-1IIIB [5]; CEM-M7, absence of SEVI
  Effect on infectivity of HIV alone: no effect on the infectivity of HIV virus alone

## CCNC(=O)CCOCCOCCOCCOCCNC(=O)CCNc1ccc(-c2nc3ccc(C)cc3s2)cc1 [Compound 1, BTA Monomer]
SEVI fibrils [6]
  Kd: 236 ± 90 nM
Aβ(1-42) fibrils; [16]
  Kd: 235 ± 75 nM
SEVI fibrils [7]
  Kd: 107 ± 16 nM

## CCNC(=O)C(CCCCNC(=O)CCOCCOCCOCCOCCNC(=O)CCNc1ccc(-c2nc3ccc(C)cc3s2)cc1)NC(=O)C(CCCCNC(=O)CCOCCOCCOCCOCCNC(=O)CCNc1ccc(-c2nc3ccc(C)cc3s2)cc1)NC(=O)C(CCCCNC(=O)CCOCCOCCOCCOCCNC(=O)CCNc1ccc(-c2nc3ccc(C)cc3s2)cc1)NC(=O)CCOCCOCCOCCOCCNC(=O)CCNc1ccc(-c2nc3ccc(C)cc3s2)cc1 (stereo not shown) [Compound 4, BTA Tetramer]
SEVI fibrils [6]
  Kd: 59 ± 6 nM
Aβ(1-42) fibrils; [16]
  Kd: 20 ± 5 nM
SEVI fibrils [7]
  Kd: 56 ± 6 nM

## Cc1ccc2nc(-c3ccc(NCCC(=O)NCCOCCOCCOCCOCCC(=O)NCCN(CCNC(=O)CCOCCOCCOCCOCCNC(=O)CCNc4ccc(-c5nc6ccc(C)cc6s5)cc4)CCNC(=O)CCOCCOCCOCCOCCNC(=O)CCNc4ccc(-c5nc6ccc(C)cc6s5)cc4)cc3)sc2c1 [Compound 3, BTA Trimer]
SEVI fibrils [6]
  Kd: 40 ± 6 nM
Aβ(1-42) fibrils; [16]
  Kd: 26 ± 6 nM
SEVI fibrils [7]
  Kd: 40 ± 6 nM
